Earlier results, collected in publication PMC8288134, “Synthesis, potential antitumor activity, cell cycle analysis, and multitarget mechanisms of novel hydrazones incorporating a 4-methylsulfonylbenzene scaffold: a molecular docking study” (Journal of Enzyme Inhibition and Medicinal Chemistry, 2021).

Tests used:
KM12 = system: KM12; parameters: method as in https://dtp.cancer.gov/dtpstandard/dwindex/index.jsp; conditions: reference drugs, ref https://dtp.cancer.gov/dtpstandard/dwindex/index.jsp; cited from earlier work
A549/ATCC = system: A549/ATCC; parameters: method as in https://dtp.cancer.gov/dtpstandard/dwindex/index.jsp; conditions: reference drugs, ref https://dtp.cancer.gov/dtpstandard/dwindex/index.jsp; cited from earlier work
[1] = system: CNS cancer tumour cell lines; conditions: cited from earlier work; for GI50: read-out: GI50 (subpanel average), reference drugs, ref https://dtp.cancer.gov/dtpstandard/dwindex/index.jsp; for CC50: read-out: LC50 (subpanel average), reference drugs, ref https://dtp.cancer.gov/dtpstandard/dwindex/index.jsp; for TGI (subpanel average): reference drugs, ref https://dtp.cancer.gov/dtpstandard/dwindex/index.jsp
[2] = system: prostate cancer tumour cell lines; conditions: cited from earlier work; for GI50: read-out: GI50 (subpanel average), reference drugs, ref https://dtp.cancer.gov/dtpstandard/dwindex/index.jsp; for CC50: read-out: LC50 (subpanel average), reference drugs, ref https://dtp.cancer.gov/dtpstandard/dwindex/index.jsp; for TGI (subpanel average): reference drugs, ref https://dtp.cancer.gov/dtpstandard/dwindex/index.jsp
OVCAR-8 = system: OVCAR-8; parameters: method as in https://dtp.cancer.gov/dtpstandard/dwindex/index.jsp; conditions: reference drugs, ref https://dtp.cancer.gov/dtpstandard/dwindex/index.jsp; cited from earlier work
MCF7 = system: MCF7; parameters: method as in https://dtp.cancer.gov/dtpstandard/dwindex/index.jsp; conditions: reference drugs, ref https://dtp.cancer.gov/dtpstandard/dwindex/index.jsp; cited from earlier work
SN12C = system: SN12C; parameters: method as in https://dtp.cancer.gov/dtpstandard/dwindex/index.jsp; conditions: reference drugs, ref https://dtp.cancer.gov/dtpstandard/dwindex/index.jsp; cited from earlier work
[3] = system: full panel of 59 cancer cell lines; conditions: cited from earlier work; for GI50: read-out: GI50 MG-MID (full panel mean-graph midpoint), reference drugs, ref https://dtp.cancer.gov/dtpstandard/dwindex/index.jsp; for CC50: read-out: LC50 MG-MID (full panel mean-graph midpoint), reference drugs, ref https://dtp.cancer.gov/dtpstandard/dwindex/index.jsp; for TGI MG-MID (full panel mean-graph midpoint): reference drugs, ref https://dtp.cancer.gov/dtpstandard/dwindex/index.jsp
HOP-62 = system: HOP-62; parameters: method as in https://dtp.cancer.gov/dtpstandard/dwindex/index.jsp; conditions: reference drugs, ref https://dtp.cancer.gov/dtpstandard/dwindex/index.jsp; cited from earlier work
CCRF-CEM = system: CCRF-CEM; parameters: method as in https://dtp.cancer.gov/dtpstandard/dwindex/index.jsp; conditions: reference drugs, ref https://dtp.cancer.gov/dtpstandard/dwindex/index.jsp; cited from earlier work
NCI/ADR-RES = system: NCI/ADR-RES; parameters: method as in https://dtp.cancer.gov/dtpstandard/dwindex/index.jsp; conditions: reference drugs, ref https://dtp.cancer.gov/dtpstandard/dwindex/index.jsp; cited from earlier work
CAKI-1 = system: CAKI-1; parameters: method as in https://dtp.cancer.gov/dtpstandard/dwindex/index.jsp; conditions: reference drugs, ref https://dtp.cancer.gov/dtpstandard/dwindex/index.jsp; cited from earlier work
COLO 205 = system: COLO 205; parameters: method as in https://dtp.cancer.gov/dtpstandard/dwindex/index.jsp; conditions: reference drugs, ref https://dtp.cancer.gov/dtpstandard/dwindex/index.jsp; cited from earlier work
TK-10 = system: TK-10; parameters: method as in https://dtp.cancer.gov/dtpstandard/dwindex/index.jsp; conditions: reference drugs, ref https://dtp.cancer.gov/dtpstandard/dwindex/index.jsp; cited from earlier work
[4] = system: colon cancer tumour cell lines; conditions: cited from earlier work; for GI50: read-out: GI50 (subpanel average), reference drugs, ref https://dtp.cancer.gov/dtpstandard/dwindex/index.jsp; for CC50: read-out: LC50 (subpanel average), reference drugs, ref https://dtp.cancer.gov/dtpstandard/dwindex/index.jsp; for TGI (subpanel average): reference drugs, ref https://dtp.cancer.gov/dtpstandard/dwindex/index.jsp
SF-539 = system: SF-539; parameters: method as in https://dtp.cancer.gov/dtpstandard/dwindex/index.jsp; conditions: reference drugs, ref https://dtp.cancer.gov/dtpstandard/dwindex/index.jsp; cited from earlier work
K-562 = system: K-562; parameters: method as in https://dtp.cancer.gov/dtpstandard/dwindex/index.jsp; conditions: reference drugs, ref https://dtp.cancer.gov/dtpstandard/dwindex/index.jsp; cited from earlier work
OVCAR-5 = system: OVCAR-5; parameters: method as in https://dtp.cancer.gov/dtpstandard/dwindex/index.jsp; conditions: reference drugs, ref https://dtp.cancer.gov/dtpstandard/dwindex/index.jsp; cited from earlier work
A498 = system: A498; parameters: method as in https://dtp.cancer.gov/dtpstandard/dwindex/index.jsp; conditions: reference drugs, ref https://dtp.cancer.gov/dtpstandard/dwindex/index.jsp; cited from earlier work
[5] = system: breast cancer tumour cell lines; conditions: cited from earlier work; for GI50: read-out: GI50 (subpanel average), reference drugs, ref https://dtp.cancer.gov/dtpstandard/dwindex/index.jsp; for TGI (subpanel average): reference drugs, ref https://dtp.cancer.gov/dtpstandard/dwindex/index.jsp; for CC50: read-out: LC50 (subpanel average), reference drugs, ref https://dtp.cancer.gov/dtpstandard/dwindex/index.jsp
SF-295 = system: SF-295; parameters: method as in https://dtp.cancer.gov/dtpstandard/dwindex/index.jsp; conditions: reference drugs, ref https://dtp.cancer.gov/dtpstandard/dwindex/index.jsp; cited from earlier work
HL-60(TB) = system: HL-60(TB); parameters: method as in https://dtp.cancer.gov/dtpstandard/dwindex/index.jsp; conditions: reference drugs, ref https://dtp.cancer.gov/dtpstandard/dwindex/index.jsp; cited from earlier work
ACHN = system: ACHN; parameters: method as in https://dtp.cancer.gov/dtpstandard/dwindex/index.jsp; conditions: reference drugs, ref https://dtp.cancer.gov/dtpstandard/dwindex/index.jsp; cited from earlier work
SNB-75 = system: SNB-75; parameters: method as in https://dtp.cancer.gov/dtpstandard/dwindex/index.jsp; conditions: reference drugs, ref https://dtp.cancer.gov/dtpstandard/dwindex/index.jsp; cited from earlier work
NCI-H522 = system: NCI-H522; parameters: method as in https://dtp.cancer.gov/dtpstandard/dwindex/index.jsp; conditions: reference drugs, ref https://dtp.cancer.gov/dtpstandard/dwindex/index.jsp; cited from earlier work
NCI-H226 = system: NCI-H226; parameters: method as in https://dtp.cancer.gov/dtpstandard/dwindex/index.jsp; conditions: reference drugs, ref https://dtp.cancer.gov/dtpstandard/dwindex/index.jsp; cited from earlier work

SMILES	GI50 (KM12) [µM]	GI50 (A549/ATCC) [µM]	GI50 [1] [µM]	TGI (subpanel average) [1] [µM]	GI50 [2] [µM]	TGI (subpanel average) [2]	GI50 (OVCAR-8) [µM]	GI50 (MCF7) [µM]	GI50 (SN12C) [µM]	GI50 [3] [µM]	TGI MG-MID (full panel mean-graph midpoint) [3] [µM]	GI50 (HOP-62) [µM]	GI50 (CCRF-CEM) [µM]	GI50 (NCI/ADR-RES) [µM]	GI50 (CAKI-1) [µM]	GI50 (COLO 205) [µM]	GI50 (TK-10) [µM]	GI50 (K-562) [µM]	GI50 (OVCAR-5) [µM]	GI50 (ACHN) [µM]	also measured
Cc1ccc(-c2cc(C(F)(F)F)nn2-c2ccc(S(N)(=O)=O)cc2)cc1 [Celecoxib, celecoxib]	15.8	15.8	17.2	31.62	14.2	28.37 µM	19.9	15.8	15.8	17.5	34.0	63.1	12.6	15.8	19.9	15.8	19.9	10	19.9	15.8	CC50 [1]: 58.8 µM; CC50 [2]: 57 µM; CC50 [3]: 63.3 µM; GI50 [4]: 20.7 µM; CC50 [4]: 66.5 µM; TGI (subpanel average) [4]: 41.39 µM; GI50 (SF-539): 19.9 µM; GI50 (A498): 15.8 µM; GI50 [5]: 17.5 µM; TGI (subpanel average) [5]: 34.89 µM; GI50 (SF-295): 15.8 µM; GI50 (HL-60(TB)): 15.8 µM; GI50 (SNB-75): 15.8 µM
C#Cc1cccc(Nc2ncnc3cc(OCCOC)c(OCCOC)cc23)c1 [Erlotinib, erlotinib]	79.4	10	17	82.11	20.9	c (Compounds showed values ≥ 100 µM)	7.94	100	1.58	7.68	66.3	15.8	50.1	7.94	0.199	50.1	0.251	31.6	7.94	0.199	CC50 [1]: > 100 µM; CC50 [2]: > 100 µM; CC50 [3]: 95.6 µM; GI50 [4]: 51.7 µM; CC50 [4]: > 100 µM; TGI (subpanel average) [4]: c (Compounds showed values ≥ 100 µM); GI50 (SF-539): 19.9 µM; GI50 (NCI-H522): 1 µM; GI50 (A498): 2.51 µM; GI50 [5]: 24.7 µM; CC50 [5]: 96.4 µM; GI50 (SF-295): 15.8 µM; GI50 (HL-60(TB)): 25.1 µM; GI50 (NCI-H226): 39.8 µM; GI50 (SNB-75): 12.6 µM
COc1cc2ncnc(Nc3ccc(F)c(Cl)c3)c2cc1OCCCN1CCOCC1 [Gefitinib, gefitinib]	10	2.51	5.64	19.62	3.29	31.62 µM	–	–	1.26	2.1	14.3	3.16	0.398	1.26	–	7.94	0.794	2.51	3.98	0.158	GI50 [4]: 5.23 µM; TGI (subpanel average) [4]: 18.47 µM; GI50 (SF-539): 10 µM; GI50 (NCI-H522): 1 µM; GI50 [5]: 4.67 µM; TGI (subpanel average) [5]: 18.62 µM; GI50 (SF-295): 10 µM; GI50 (HL-60(TB)): 1 µM; GI50 (NCI-H226): 3.98 µM
CNC(=O)c1cc(Oc2ccc(NC(=O)Nc3ccc(Cl)c(C(F)(F)F)c3)cc2)ccn1 [Sorafenib, sorafenib]	–	3.16	2.33	7.64	2.58	10.27 µM	3.16	2.51	2.51	2.33	9.11	1.99	1.99	2.51	3.16	1.99	3.98	3.16	3.16	2.51	CC50 [1]: 27.8 µM; CC50 [2]: 69.9 µM; CC50 [3]: 43.1 µM; GI50 [4]: 2.19 µM; CC50 [4]: 38.1 µM; TGI (subpanel average) [4]: 7.94 µM; GI50 (NCI-H522): 1.99 µM; GI50 (A498): 2.51 µM; CC50 [5]: 57.3 µM; TGI (subpanel average) [5]: 9.35 µM; GI50 (NCI-H226): 1.99 µM; GI50 (SNB-75): 3.16 µM
CS(=O)(=O)c1ccc(C(=O)Nc2ccc(Cl)c(-c3ccccn3)c2)c(Cl)c1 [Vismodegib, vismodegib]	31.6	39.8	–	–	–	–	31.6	31.6	39.8	–	–	79.4	31.6	31.6	79.4	39.8	63.1	31.6	100	39.8	GI50 (SF-539): 50.1 µM; GI50 (NCI-H522): 25.1 µM; GI50 (A498): 31.6 µM; GI50 (SF-295): 31.6 µM; GI50 (HL-60(TB)): 31.6 µM; GI50 (NCI-H226): 50.1 µM; GI50 (SNB-75): 25.1 µM
